Laboratory results: US20250367126A1, “SOFTGEL CAPSULE COMPRISING A H2 RECEPTOR ANTAGONIST” (KENVUE BRANDS LLC, priority 2024, published 2025)
Like-named read-outs stand apart in the source and are kept apart here.

Experiments:
[1] = J Pharm Pharmacol 1993, 45:682-686, cited from earlier work
[2] = Description: For this evaluation, excipients were added to clear glass vials at ambient temperature. […] The vials were attached to a Burrell Action Wrist Shaker (mechanical shaker) and agitated for approximately 60 hours (hrs) at ambient conditions.
After shaking for approximately 60 hrs, a first portion of the supernatant solution from each vial was submitted for chemical analysis. A second portion of the remaining dispersions was transferred to amber vials and stored at ambient conditions.

[3] = Acidified PEG 400 Solution with water [PEG 400 (59.7%) + acetic acid (30.0%) + water (10.3%)], 2 Weeks in Amber Vials
[4] = Acidified PEG 400 Solution with water [PEG 400 (59.7%) + acetic acid (30.0%) + water (10.3%)], 2 Weeks in Clear Vials
[5] = Acidified PEG 400 Solution with water [PEG 400 (59.7%) + acetic acid (30.0%) + water (10.3%)], Initial
[6] = Caprylocaproyl Polyoxyl-8 Glycerides NF (Labrasol), 2 Weeks in Amber Vials
[7] = Caprylocaproyl Polyoxyl-8 Glycerides NF (Labrasol), 2 Weeks in Clear Vials
[8] = Caprylocaproyl Polyoxyl-8 Glycerides NF (Labrasol), Initial
[9] = Medium Chain Triglycerides NF (MCT), 2 Weeks in Amber Vials
[10] = Medium Chain Triglycerides NF (MCT), 2 Weeks in Clear Vials
[11] = Medium Chain Triglycerides NF (MCT), Initial
[12] = Mono/Diglycerides of Capric/Caprylic Acid NF (Capmul MCM), 2 Weeks in Amber Vials
[13] = Mono/Diglycerides of Capric/Caprylic Acid NF (Capmul MCM), 2 Weeks in Clear Vials
[14] = Mono/Diglycerides of Capric/Caprylic Acid NF (Capmul MCM), Initial
[15] = Polyethylene Glycol 400, NF (PEG 400), 2 Weeks in Amber Vials
[16] = Polyethylene Glycol 400, NF (PEG 400), 2 Weeks in Clear Vials
[17] = Polyethylene Glycol 400, NF (PEG 400), Initial
[18] = Polyoxyl-35 Castor Oil NF (Kolliphor EL), 2 Weeks in Amber Vials
[19] = Polyoxyl-35 Castor Oil NF (Kolliphor EL), 2 Weeks in Clear Vials
[20] = Polyoxyl-35 Castor Oil NF (Kolliphor EL), Initial
[21] = Polysorbate 80 NF (Tween 80), 2 Weeks in Amber Vials
[22] = Polysorbate 80 NF (Tween 80), 2 Weeks in Clear Vials
[23] = Polysorbate 80 NF (Tween 80), Initial

NC(N)=Nc1nc(CSCCC(N)=NS(N)(=O)=O)cs1 [famotidine]
aqueous solubility [1]: poor aqueous solubility
lipophilicity [1]: poor lipophilicity
stability versus pH ([1]; liquid media): low stability outside a pH range of 6 to 7
Equilibrium solubility of famotidine, mg/g Solvent [2, 3]: 137 mg/g
Equilibrium solubility of famotidine, mg/g Total [2, 3]: 121 mg/g
Equilibrium solubility of famotidine, mg/g Solvent [2, 4]: 141 mg/g
Equilibrium solubility of famotidine, mg/g Total [2, 4]: 124 mg/g
Equilibrium solubility of famotidine, mg/g Solvent [2, 5]: 160 mg/g
Equilibrium solubility of famotidine, mg/g Total [2, 5]: 138 mg/g
Equilibrium solubility of famotidine, mg/g Solvent [2, 6]: 58 mg/g
Equilibrium solubility of famotidine, mg/g Total [2, 6]: 55 mg/g
Equilibrium solubility of famotidine, mg/g Solvent [2, 7]: 61 mg/g
Equilibrium solubility of famotidine, mg/g Total [2, 7]: 57 mg/g
Equilibrium solubility of famotidine, mg/g Solvent [2, 8]: 61 mg/g
Equilibrium solubility of famotidine, mg/g Total [2, 8]: 57 mg/g
Equilibrium solubility of famotidine, mg/g Solvent ([2]; Glacial acetic acid, Initial): 318 mg/g
Equilibrium solubility of famotidine, mg/g Total ([2]; Glacial acetic acid, Initial): 241 mg/g
Equilibrium solubility of famotidine, mg/g Solvent [2, 9]: ND (“ND” means not detected, famotidine content was below 0.1 mg/g.)
Equilibrium solubility of famotidine, mg/g Total [2, 9]: ND (“ND” means not detected, famotidine content was below 0.1 mg/g.)
Equilibrium solubility of famotidine, mg/g Solvent [2, 10]: ND (“ND” means not detected, famotidine content was below 0.1 mg/g.)
Equilibrium solubility of famotidine, mg/g Total [2, 10]: ND (“ND” means not detected, famotidine content was below 0.1 mg/g.)
Equilibrium solubility of famotidine, mg/g Solvent [2, 11]: ND (“ND” means not detected, famotidine content was below 0.1 mg/g.)
Equilibrium solubility of famotidine, mg/g Total [2, 11]: ND (“ND” means not detected, famotidine content was below 0.1 mg/g.)
Equilibrium solubility of famotidine, mg/g Solvent [2, 12]: 3 mg/g
Equilibrium solubility of famotidine, mg/g Total [2, 12]: 3 mg/g
Equilibrium solubility of famotidine, mg/g Solvent [2, 13]: 3 mg/g
Equilibrium solubility of famotidine, mg/g Total [2, 13]: 3 mg/g
Equilibrium solubility of famotidine, mg/g Solvent [2, 14]: 3 mg/g
Equilibrium solubility of famotidine, mg/g Total [2, 14]: 3 mg/g
Equilibrium solubility of famotidine, mg/g Solvent [2, 15]: 115 mg/g
Equilibrium solubility of famotidine, mg/g Total [2, 15]: 103 mg/g
Equilibrium solubility of famotidine, mg/g Solvent [2, 16]: 116 mg/g
Equilibrium solubility of famotidine, mg/g Total [2, 16]: 104 mg/g
Equilibrium solubility of famotidine, mg/g Solvent [2, 17]: 118 mg/g
Equilibrium solubility of famotidine, mg/g Total [2, 17]: 106 mg/g
Equilibrium solubility of famotidine, mg/g Solvent [2, 18]: 64 mg/g
Equilibrium solubility of famotidine, mg/g Total [2, 18]: 60 mg/g
Equilibrium solubility of famotidine, mg/g Solvent [2, 19]: 63 mg/g
Equilibrium solubility of famotidine, mg/g Total [2, 19]: 60 mg/g
Equilibrium solubility of famotidine, mg/g Solvent [2, 20]: 64 mg/g
Equilibrium solubility of famotidine, mg/g Total [2, 20]: 60 mg/g
Equilibrium solubility of famotidine, mg/g Solvent [2, 21]: 45 mg/g
Equilibrium solubility of famotidine, mg/g Total [2, 21]: 43 mg/g
Equilibrium solubility of famotidine, mg/g Solvent [2, 22]: 36 mg/g
Equilibrium solubility of famotidine, mg/g Total [2, 22]: 35 mg/g
Equilibrium solubility of famotidine, mg/g Solvent [2, 23]: 45 mg/g
Equilibrium solubility of famotidine, mg/g Total [2, 23]: 43 mg/g
Equilibrium solubility of famotidine, mg/g Solvent ([2]; Propylene Glycol USP, Initial): 17 mg/g
Equilibrium solubility of famotidine, mg/g Total ([2]; Propylene Glycol USP, Initial): 17 mg/g
solubility of famotidine (in words) ([2]; hydrophilic solvents (PEG 400, acidified PEG 400 solution with water, glacial acetic acid)): High solubility
